{"source": "patent US20070049564A1", "about": "(Wyeth, priority 2005, published 2007)", "key": {"S. aureus GC 1131": {"system": "S. aureus GC 1131", "assay": "MIC, broth microdilution", "conditions": "Staphylococcus aureus, GC1131, S. aureus GC 1131"}, "Staph. aureus Smith": {"system": "Staph. aureus Smith", "assay": "In vivo activity (oral, iv; ED50) against Staph. aureus Smith in mice", "conditions": "Staphylococcus aureus, in Mus musculus", "protocol": "Representative examples of compounds of Formula I were tested for the oral efficacy using S. aureus Smith in mice."}, "E. coli GC 2203": {"system": "E. coli GC 2203", "assay": "MIC, broth microdilution", "conditions": "Escherichia coli, GC2203, E. coli GC 2203"}, "E. faecalis GC 2242": {"system": "E. faecalis GC 2242", "assay": "MIC, broth microdilution", "conditions": "Enterococcus faecalis, GC2242, E. faecalis GC 2242"}, "E. coli GC 2234": {"system": "E. coli GC 2234", "assay": "MIC, broth microdilution", "conditions": "Escherichia coli, GC2234, E. coli GC 2234"}, "S. aureus GC 4536": {"system": "S. aureus GC 4536", "assay": "MIC, broth microdilution", "conditions": "Staphylococcus aureus, GC4536, S. aureus GC 4536"}, "S. aureus GC 6466": {"system": "S. aureus GC 6466", "assay": "MIC, broth microdilution", "conditions": "Staphylococcus aureus, GC6466, S. aureus GC 6466"}, "S. pneumoniae* GC 4465": {"system": "S. pneumoniae* GC 4465", "assay": "MIC, broth microdilution", "conditions": "Streptococcus pneumoniae, S. pneumoniae* GC 4465"}, "S. pneumoniae+ GC 4465": {"system": "S. pneumoniae+ GC 4465", "assay": "MIC, broth microdilution", "conditions": "Streptococcus pneumoniae, S. pneumoniae+ GC 4465"}, "S. epidermidis GC 4935": {"system": "S. epidermidis GC 4935", "assay": "MIC, broth microdilution", "conditions": "Staphylococcus epidermidis, GC4935, S. epidermidis GC 4935"}, "E. coli GC 6465": {"system": "E. coli GC 6465", "assay": "MIC, broth microdilution", "conditions": "Escherichia coli, GC6465, E. coli GC 6465"}, "S. aureus GC 2216": {"system": "S. aureus GC 2216", "assay": "MIC, broth microdilution", "conditions": "Staphylococcus aureus, GC2216, S. aureus GC 2216"}, "E. coli GC 2231": {"system": "E. coli GC 2231", "assay": "MIC, broth microdilution", "conditions": "Escherichia coli, GC2231, E. coli GC 2231"}, "E. faecalis GC 2267": {"system": "E. faecalis GC 2267", "assay": "MIC, broth microdilution", "conditions": "Enterococcus faecalis, GC2267, E. faecalis GC 2267"}, "E. coli GC 2232": {"system": "E. coli GC 2232", "assay": "MIC, broth microdilution", "conditions": "Escherichia coli, GC2232, E. coli GC 2232"}, "E. coli GC 4559": {"system": "E. coli GC 4559", "assay": "MIC, broth microdilution", "conditions": "Escherichia coli, GC4559, E. coli GC 4559"}, "S. aureus GC 6467": {"system": "S. aureus GC 6467", "assay": "MIC, broth microdilution", "conditions": "Staphylococcus aureus, GC6467, S. aureus GC 6467"}, "E. coli GC 4560": {"system": "E. coli GC 4560", "assay": "MIC, broth microdilution", "conditions": "Escherichia coli, GC4560, E. coli GC 4560"}, "E. coli GC 2272": {"system": "E. coli GC 2272", "assay": "MIC, broth microdilution", "conditions": "Escherichia coli, GC2272, E. coli GC 2272"}, "P. aeruginosa GC 2214": {"system": "P. aeruginosa GC 2214", "assay": "MIC, broth microdilution", "conditions": "Pseudomonas aeruginosa, GC2214, P. aeruginosa GC 2214"}}, "note": "Where two headings read alike, the source gives them in different places."}
{"smiles": "CCCCN(CC(=O)Nc1cc(N(C)C)c2c(c1O)C(=O)C1=C(O)[C@]3(O)C(=O)C(C(N)=O)=C(O)[C@@H](N(C)C)C3CC1C2)C(=O)OCOC(=O)C(C)C", "note": "(stereo partly drawn) [Example 1, ({[(2-{[(7S,10aS)-9-(aminocarbonyl)-4,7-bis(dimethylamino)-1,8,10a,11-tetrahydroxy-10,12-dioxo-5,5a,6,6a,7,10,10a,12-octahydrotetracen-2-yl]amino}-2-oxoethyl)(butyl)amino]carbonyl}oxy)methyl 2-methylpropanoate]", "values": [{"measurement": "MIC", "setting": "S. aureus GC 1131; Mouse Serum pre-incubation", "result": 1, "unit": "µg/mL"}, {"measurement": "MIC", "setting": "S. aureus GC 1131; Water pre-incubation", "result": 4, "unit": "µg/mL"}, {"measurement": "ED50", "setting": "Staph. aureus Smith; iv, read-out: ED50 SIV (Staph aureus Smith)", "result": 0.6, "unit": "mg/kg"}, {"measurement": "ED50", "setting": "Staph. aureus Smith; po, read-out: ED50 SOD (Staph aureus Smith)", "result": 4.7, "unit": "mg/kg"}, {"measurement": "MIC", "setting": "E. coli GC 2203; Mouse Serum pre-incubation", "result": 0.5, "unit": "µg/mL"}, {"measurement": "MIC", "setting": "E. coli GC 2203; Water pre-incubation", "result": 16, "unit": "µg/mL"}, {"measurement": "MIC", "setting": "E. faecalis GC 2242; Mouse Serum pre-incubation", "result": 1, "unit": "µg/mL"}, {"measurement": "MIC", "setting": "E. faecalis GC 2242; Water pre-incubation", "result": 4, "unit": "µg/mL"}, {"measurement": "MIC", "setting": "E. coli GC 2234; Mouse Serum pre-incubation", "result": 0.5, "unit": "µg/mL"}, {"measurement": "MIC", "setting": "E. coli GC 2234; Water pre-incubation", "result": 16, "unit": "µg/mL"}, {"measurement": "MIC", "setting": "S. aureus GC 4536; Mouse Serum pre-incubation", "result": 2, "unit": "µg/mL"}, {"measurement": "MIC", "setting": "S. aureus GC 4536; Water pre-incubation", "result": 4, "unit": "µg/mL"}, {"measurement": "MIC", "setting": "S. aureus GC 6466; Mouse Serum pre-incubation", "result": 1, "unit": "µg/mL"}, {"measurement": "MIC", "setting": "S. aureus GC 6466; Water pre-incubation", "result": 1, "unit": "µg/mL"}, {"measurement": "MIC", "setting": "S. pneumoniae* GC 4465; Mouse Serum pre-incubation", "result": 0.5, "unit": "µg/mL"}, {"measurement": "MIC", "setting": "S. pneumoniae* GC 4465; Water pre-incubation", "result": 0.25, "unit": "µg/mL"}, {"measurement": "MIC", "setting": "S. pneumoniae+ GC 4465; Mouse Serum pre-incubation", "result": 2, "unit": "µg/mL"}, {"measurement": "MIC", "setting": "S. pneumoniae+ GC 4465; Water pre-incubation", "result": 2, "unit": "µg/mL"}, {"measurement": "MIC", "setting": "S. epidermidis GC 4935; Mouse Serum pre-incubation", "result": 2, "unit": "µg/mL"}, {"measurement": "MIC", "setting": "S. epidermidis GC 4935; Water pre-incubation", "result": 8, "unit": "µg/mL"}, {"measurement": "MIC", "setting": "E. coli GC 6465; Mouse Serum pre-incubation", "result": 8, "unit": "µg/mL"}, {"measurement": "MIC", "setting": "E. coli GC 6465; Water pre-incubation", "result": "> 64", "unit": "µg/mL"}, {"measurement": "MIC", "setting": "S. aureus GC 2216; Mouse Serum pre-incubation", "result": 1, "unit": "µg/mL"}, {"measurement": "MIC", "setting": "S. aureus GC 2216; Water pre-incubation", "result": 4, "unit": "µg/mL"}, {"measurement": "MIC", "setting": "E. coli GC 2231; Mouse Serum pre-incubation", "result": 1, "unit": "µg/mL"}, {"measurement": "MIC", "setting": "E. coli GC 2231; Water pre-incubation", "result": 64, "unit": "µg/mL"}, {"measurement": "MIC", "setting": "E. faecalis GC 2267; Mouse Serum pre-incubation", "result": 2, "unit": "µg/mL"}, {"measurement": "MIC", "setting": "E. faecalis GC 2267; Water pre-incubation", "result": 8, "unit": "µg/mL"}, {"measurement": "MIC", "setting": "E. coli GC 2232; Mouse Serum pre-incubation", "result": 0.5, "unit": "µg/mL"}, {"measurement": "MIC", "setting": "E. coli GC 2232; Water pre-incubation", "result": 16, "unit": "µg/mL"}, {"measurement": "MIC", "setting": "E. coli GC 4559; Mouse Serum pre-incubation", "result": 1, "unit": "µg/mL"}, {"measurement": "MIC", "setting": "E. coli GC 4559; Water pre-incubation", "result": 32, "unit": "µg/mL"}, {"measurement": "MIC", "setting": "S. aureus GC 6467; Mouse Serum pre-incubation", "result": 4, "unit": "µg/mL"}, {"measurement": "MIC", "setting": "S. aureus GC 6467; Water pre-incubation", "result": 4, "unit": "µg/mL"}, {"measurement": "MIC", "setting": "E. coli GC 4560; Mouse Serum pre-incubation", "result": 0.5, "unit": "µg/mL"}, {"measurement": "MIC", "setting": "E. coli GC 4560; Water pre-incubation", "result": 2, "unit": "µg/mL"}, {"measurement": "MIC", "setting": "E. coli GC 2272; Mouse Serum pre-incubation", "result": 1, "unit": "µg/mL"}, {"measurement": "MIC", "setting": "E. coli GC 2272; Water pre-incubation", "result": 16, "unit": "µg/mL"}, {"measurement": "MIC", "setting": "P. aeruginosa GC 2214; Mouse Serum pre-incubation", "result": 32, "unit": "µg/mL"}, {"measurement": "MIC", "setting": "P. aeruginosa GC 2214; Water pre-incubation", "result": "> 64", "unit": "µg/mL"}]}
